Data from PMC9611727, “Optimization of a Novel Mandelamide-Derived Pyrrolopyrimidine Series of PERK Inhibitors” (Pharmaceutics, 2022).

Legend:
Assay in all cases: scanMAX kinase panel
Format in all cases: binding
Conditions in all cases: read-out: % Control; for remaining binding at 1 µM: 1000 nM
FLT3(N841I) = molecular target: T1, FLT3(N841I) (Homo sapiens, UniProt P36888, N841I)
T1 construct: purchased DiscoverX scanMAX
T1 sequence (P36888 27-993 N841I): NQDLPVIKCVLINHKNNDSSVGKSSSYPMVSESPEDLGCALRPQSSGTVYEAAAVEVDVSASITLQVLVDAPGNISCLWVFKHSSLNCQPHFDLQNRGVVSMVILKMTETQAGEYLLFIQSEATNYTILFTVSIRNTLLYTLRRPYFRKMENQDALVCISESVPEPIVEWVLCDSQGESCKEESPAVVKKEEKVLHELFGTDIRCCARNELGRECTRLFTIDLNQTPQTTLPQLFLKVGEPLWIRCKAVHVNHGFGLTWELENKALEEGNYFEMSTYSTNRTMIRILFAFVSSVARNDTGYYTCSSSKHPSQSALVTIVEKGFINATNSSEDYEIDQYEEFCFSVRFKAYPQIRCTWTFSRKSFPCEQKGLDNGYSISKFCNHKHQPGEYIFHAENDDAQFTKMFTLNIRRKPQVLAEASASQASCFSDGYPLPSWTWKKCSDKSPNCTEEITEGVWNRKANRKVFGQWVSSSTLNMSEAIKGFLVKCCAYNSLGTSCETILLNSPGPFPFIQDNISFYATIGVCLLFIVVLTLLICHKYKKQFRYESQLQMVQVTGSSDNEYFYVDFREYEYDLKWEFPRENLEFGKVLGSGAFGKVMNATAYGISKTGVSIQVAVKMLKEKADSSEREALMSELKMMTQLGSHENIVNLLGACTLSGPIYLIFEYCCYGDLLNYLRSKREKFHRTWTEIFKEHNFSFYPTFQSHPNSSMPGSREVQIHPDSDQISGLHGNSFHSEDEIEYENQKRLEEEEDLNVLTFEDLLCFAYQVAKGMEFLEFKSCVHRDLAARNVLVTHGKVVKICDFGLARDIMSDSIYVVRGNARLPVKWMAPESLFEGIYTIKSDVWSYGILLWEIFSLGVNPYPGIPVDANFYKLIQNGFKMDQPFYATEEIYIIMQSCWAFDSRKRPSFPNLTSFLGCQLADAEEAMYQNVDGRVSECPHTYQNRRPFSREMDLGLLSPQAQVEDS
Excerpt: (§1) Supplemental Table S2. scanMAXSM Kinome Assay Results. Complete tabulated data of all 468 kinases from the panel, including
(§2) 403 wild-type and 65 mutant isoforms. […] Cmpd 11 and Cmpd 24

KIT(L576P) = molecular target: T2, KIT(L576P) (Homo sapiens, UniProt P10721, L576P)
T2 construct: purchased DiscoverX scanMAX
T2 sequence (P10721 26-976 L576P): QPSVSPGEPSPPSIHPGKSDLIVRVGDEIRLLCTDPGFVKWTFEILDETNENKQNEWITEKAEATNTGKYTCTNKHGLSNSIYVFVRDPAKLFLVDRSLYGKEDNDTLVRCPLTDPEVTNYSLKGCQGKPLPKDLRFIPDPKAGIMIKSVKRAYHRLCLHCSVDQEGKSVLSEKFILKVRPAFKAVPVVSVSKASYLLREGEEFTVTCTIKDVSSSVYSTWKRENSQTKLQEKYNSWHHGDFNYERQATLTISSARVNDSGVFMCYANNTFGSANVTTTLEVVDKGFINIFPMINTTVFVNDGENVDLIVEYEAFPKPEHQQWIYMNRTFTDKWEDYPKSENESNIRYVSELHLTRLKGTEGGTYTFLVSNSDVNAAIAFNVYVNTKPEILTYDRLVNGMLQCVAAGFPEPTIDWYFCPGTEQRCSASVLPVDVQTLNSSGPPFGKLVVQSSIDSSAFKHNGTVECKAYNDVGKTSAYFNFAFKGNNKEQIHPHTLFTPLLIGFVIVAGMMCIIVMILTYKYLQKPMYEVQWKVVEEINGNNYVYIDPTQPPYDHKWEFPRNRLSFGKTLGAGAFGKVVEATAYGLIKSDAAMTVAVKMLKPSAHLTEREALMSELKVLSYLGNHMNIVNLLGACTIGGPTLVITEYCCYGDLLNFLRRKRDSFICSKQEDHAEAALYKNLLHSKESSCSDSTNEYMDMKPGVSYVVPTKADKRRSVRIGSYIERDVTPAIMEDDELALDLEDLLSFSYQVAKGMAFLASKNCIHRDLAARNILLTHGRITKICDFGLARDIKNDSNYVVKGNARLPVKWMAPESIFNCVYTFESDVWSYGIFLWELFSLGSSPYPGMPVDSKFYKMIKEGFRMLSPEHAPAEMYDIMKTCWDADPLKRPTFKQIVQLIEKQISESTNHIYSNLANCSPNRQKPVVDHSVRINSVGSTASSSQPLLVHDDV
Excerpt: as §1, §2

NEK1 = molecular target: T3, NEK1 (Homo sapiens, UniProt Q96PY6)
T3 construct: purchased DiscoverX scanMAX
T3 sequence (Q96PY6 1-1258): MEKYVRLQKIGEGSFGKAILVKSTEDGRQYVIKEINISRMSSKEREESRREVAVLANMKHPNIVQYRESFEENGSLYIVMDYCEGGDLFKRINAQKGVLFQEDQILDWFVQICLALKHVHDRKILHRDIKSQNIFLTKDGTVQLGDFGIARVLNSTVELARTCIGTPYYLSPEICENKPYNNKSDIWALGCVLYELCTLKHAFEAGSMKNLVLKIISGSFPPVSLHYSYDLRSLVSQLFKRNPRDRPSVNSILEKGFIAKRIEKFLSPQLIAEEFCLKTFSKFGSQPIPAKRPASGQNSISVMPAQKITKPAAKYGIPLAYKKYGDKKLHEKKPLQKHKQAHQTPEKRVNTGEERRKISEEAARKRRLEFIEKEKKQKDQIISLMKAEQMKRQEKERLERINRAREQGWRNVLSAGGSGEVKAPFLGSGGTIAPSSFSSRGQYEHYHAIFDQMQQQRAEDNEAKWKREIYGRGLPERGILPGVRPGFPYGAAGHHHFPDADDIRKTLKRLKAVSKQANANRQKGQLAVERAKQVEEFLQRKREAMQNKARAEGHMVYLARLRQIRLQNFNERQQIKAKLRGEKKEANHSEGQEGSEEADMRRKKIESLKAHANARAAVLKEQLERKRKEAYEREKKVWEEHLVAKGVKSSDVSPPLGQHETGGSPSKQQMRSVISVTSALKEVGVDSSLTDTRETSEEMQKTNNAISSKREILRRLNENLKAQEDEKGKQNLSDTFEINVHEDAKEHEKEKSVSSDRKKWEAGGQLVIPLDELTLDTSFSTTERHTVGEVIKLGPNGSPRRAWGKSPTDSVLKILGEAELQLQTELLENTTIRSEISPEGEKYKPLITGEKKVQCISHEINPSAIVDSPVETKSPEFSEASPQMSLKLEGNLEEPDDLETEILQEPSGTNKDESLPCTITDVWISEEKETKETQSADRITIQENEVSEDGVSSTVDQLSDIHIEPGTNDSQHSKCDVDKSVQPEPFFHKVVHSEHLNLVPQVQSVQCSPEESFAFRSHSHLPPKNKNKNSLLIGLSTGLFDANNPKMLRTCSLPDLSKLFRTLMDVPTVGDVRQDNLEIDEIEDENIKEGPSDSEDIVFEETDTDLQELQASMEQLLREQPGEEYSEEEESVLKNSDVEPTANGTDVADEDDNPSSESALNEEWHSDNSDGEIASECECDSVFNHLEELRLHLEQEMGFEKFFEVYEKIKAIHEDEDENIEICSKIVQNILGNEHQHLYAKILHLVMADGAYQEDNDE
Excerpt: as §1, §2

NEK5 = molecular target: T4, NEK5 (Homo sapiens, UniProt Q6P3R8)
T4 construct: purchased DiscoverX scanMAX
T4 sequence (Q6P3R8 1-708): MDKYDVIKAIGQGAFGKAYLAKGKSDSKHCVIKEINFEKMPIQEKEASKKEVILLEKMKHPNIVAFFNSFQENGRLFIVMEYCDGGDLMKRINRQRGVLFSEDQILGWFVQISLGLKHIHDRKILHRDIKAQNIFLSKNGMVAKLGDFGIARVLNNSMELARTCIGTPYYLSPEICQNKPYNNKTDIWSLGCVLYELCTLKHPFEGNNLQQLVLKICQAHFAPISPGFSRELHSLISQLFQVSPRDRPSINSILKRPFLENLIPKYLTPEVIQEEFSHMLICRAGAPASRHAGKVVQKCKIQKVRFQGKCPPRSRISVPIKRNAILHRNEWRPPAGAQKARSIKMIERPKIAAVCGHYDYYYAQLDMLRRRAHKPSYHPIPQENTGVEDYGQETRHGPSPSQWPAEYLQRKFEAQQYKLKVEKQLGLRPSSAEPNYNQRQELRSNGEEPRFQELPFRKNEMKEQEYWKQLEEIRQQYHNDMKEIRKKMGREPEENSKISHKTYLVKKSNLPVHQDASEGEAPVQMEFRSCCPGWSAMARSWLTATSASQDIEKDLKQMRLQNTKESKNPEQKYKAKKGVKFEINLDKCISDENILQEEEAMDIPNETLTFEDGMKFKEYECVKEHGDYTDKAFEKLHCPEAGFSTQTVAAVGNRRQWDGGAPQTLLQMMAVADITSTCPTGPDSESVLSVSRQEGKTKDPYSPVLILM
Excerpt: as §1, §2

Compound: Cc1cc(NC(=O)[C@H](O)c2cccc(F)c2)ccc1-c1cn(C)c2ncnc(N)c12 [Compound 11, (R)-N-(4-(4-amino-7-methyl-7H-pyrrolo[2,3-d]pyrimidin-5-yl)-3-methylphenyl)-2-(3-fluorophenyl)-2-hydroxy acetamide]
- remaining binding at 1 µM (FLT3(N841I)): 0.3%
- remaining binding at 1 µM (KIT(L576P)): 36%
- remaining binding at 1 µM (NEK1): 2.9%
- remaining binding at 1 µM (NEK5): 34%

Compound: Cc1nc(N)c2c(-c3ccc(NC(=O)[C@H](O)c4cccc(F)c4)cc3C)cn(C)c2n1 [Compound 24]
- remaining binding at 1 µM (FLT3(N841I)): 100%
- remaining binding at 1 µM (KIT(L576P)): 98%
- remaining binding at 1 µM (NEK1): 100%
- remaining binding at 1 µM (NEK5): 100%

Compound: Cc1nc(N)c2c(-c3ccc(NC(=O)[C@H](O)c4cccc(C(F)(F)F)c4)cc3C)cn(C)c2n1 [Compound 26]
- remaining binding at 0.1 µM (FLT3(N841I); 100 nM): 34%
- remaining binding at 1 µM (FLT3(N841I)): 0%
- remaining binding at 0.1 µM (KIT(L576P); 100 nM): 85%
- remaining binding at 1 µM (KIT(L576P)): 2.6%
- remaining binding at 0.1 µM (NEK1; 100 nM): 88%
- remaining binding at 1 µM (NEK1): 100%
- remaining binding at 0.1 µM (NEK5; 100 nM): 100%
- remaining binding at 1 µM (NEK5): 96%
